Experimental data: patent US10729666B2, “Use of GABAA receptor reinforcing agent in preparation of sedative and anesthetic medicament” (Sichuan Haisco Pharmaceutical Co., Ltd., priority 2014, dated 2020)

How the values were obtained:
[1] = Righting reflex experiment on mice; conditions: both, ICR, mouse, in vivo, iv
Protocol: (§1) LD5 (5% lethal dose): dose required to cause 5% of animals to die in a test.
(§2) If a normal animal was able to immediately body-right after being pushed over or made lying on its back, such a reflex was determined as the righting reflex. Otherwise, loss of the righting reflex and the time of loss were recorded, and a reflex recovery time was recorded when the animal restored the righting reflex. The period from finishing of drug administration until loss of the righting reflex was recorded as the anesthesia induction time, and the period from loss of the righting reflex until recovery of the righting reflex was recorded as the anesthesia maintenance time.
(§3) TI (therapeutic index, i.e. LD50/ED50), SI (safety index, i.e. LD5/ED95).
(§4) MTD (maximum tolerated dose): the maximum dose able to cause 100% of animals to loss the righting index without death.
(§5) Indicators such as median effective dose (ED50), median lethal dose (LD50), therapeutic index (TI, i.e. LD50/ED50), safety index (SI, i.e. LD5/ED95), anesthesia induction time, anesthesia maintenance time, and maximum tolerated dose (MTD) were used to evaluate the effect and safety of anesthesia. […] After adapting to the laboratory environment, laboratory animals were fasted for 12 hours. On the next day, administration was carried out at 10 mg/kg body weight. Upon intravenous injection, the time of loss of the righting reflex was recorded. The period from finishing of drug administration until loss of the righting reflex was recorded as the anesthesia induction time, and the period from loss of the righting reflex until recovery of the righting reflex was recorded as the anesthesia maintenance time. The anesthesia induction time and the anesthesia maintenance time were used to indicate how strong an anesthetic effect was. Meanwhile, the dose required to cause a 7-min anesthesia (HD7) was measured and used to evaluate relative efficacy.

ICR mice = experiment: Righting reflex experiment on mice; conditions: for HD7 / Anesthesia induction time / Anesthesia maintenance time / SI / TI: intravenous; for HD7: dose required to cause a 7-min anesthesia; for Anesthesia induction time: end of administration until loss of righting reflex; for Anesthesia maintenance time: loss until recovery of righting reflex; for ED50: Mus musculus, iv; for SI: safety index, LD5/ED95; for TI: therapeutic index, LD50/ED50
Protocol: as §1, §2, §3, §4, §5

healthy male volunteers = experiment: Preliminary pharmacodynamic studies with healthy humans; type: in vivo; conditions: single intravenous injection of the emulsion injection
Protocol: The subjects were fasted during the night for 6 hours or longer. The Emulsion injection of Compound 7 was administered by single intravenous injection. Groups 1 and 2 were administered by manual push injection for 2 to 3 seconds, and Groups 3-8 were administered by constant-rate pump injection for more than 1 min.
Primary indices include RASS and the tolerance to pain during injection (Verbal rating scale (VRS) was used to allow the researchers to know the pain degree of subjects); and secondary indices include cardiovascular indices and EEG (electroencephalogram) and BIS (Bispectral index) associated with the cognitive function recovery evaluation (QoR-40).

Structure (SMILES) | MTD [1] | HD7 (ICR mice; ICR mice) | Anesthesia induction time (ICR mice; ICR mice) | Anesthesia maintenance time (ICR mice; ICR mice) | ED50 (ICR mice) | SI (ICR mice; ICR mice) | TI (ICR mice; ICR mice) | dose with which subjects started showing light anesthesia (healthy male volunteers) | LD50 [1] | LD50 (ICR mice; ICR mice, intravenous injection, solvent 10% DMSO, 15% solutol HS15, 75% saline)
CC(C)c1cccc(C(C)C2CC2)c1O (racemic) [Compound 1, 2-(1-cyclopropylethyl)-6-isopropylphenol] | 10 mg/kg | 6.0 mg/kg | <15.0 s | 660.4 s | 3.7 mg/kg | 1.7 | 6.1 |  |  | 
CC(C)c1cccc([C@H](C)C2CC2)c1O [Compound 7, 2-[(1R)-1-cyclopropylethyl]-6-isopropyl-phenol] |  |  |  |  |  |  |  | 0.128 mg/kg |  | 
CC(C)c1cccc([C@@H](C)C2CC2)c1O [Compound 8, 2-[(1S)-1-cyclopropylethyl]-6-isopropyl-phenol] | 20 mg/kg |  | <15.0 s | 1031.6 s | 5.8 mg/kg | 3.5 | 7.5 |  | 43.6 mg/kg | 
C[C@H](c1cccc([C@H](C)C2CC2)c1O)C1CC1 [Compound 9, 2-[(1S)-1-cyclopropylethyl]-6-[(1R)-1-cyclopropylethyl]phenol] |  | 2.5 mg/kg |  |  |  |  |  |  |  | 
C[C@@H](c1cccc([C@H](C)C2CC2)c1O)C1CC1 [Compound 10, 2,6-bis[(1R)-1-cyclopropylethyl]phenol] | 5 mg/kg |  |  | 754.4 s | 1.5 mg/kg | 3.8 | 4.1 |  |  | 6.3 mg/kg
